The values that follow come from US9670242B2, “Tetracyclic anthraquinone derivatives” (Tianjin Hemay Bio-Tech Co., Ltd, priority 2012, dated 2017).

In one data set the test system is A375 cells. The data set is described as follows: A375 cell growth inhibition test (MTT assay). It counts as cell-based, human. To be noted: 72 h. The protocol: A375 Cell Growth Inhibition Test (MTT Assay)
(§1) II. Reagents and Consumable Materials
Culture medium: 90% DMEM+10% FBS (fetal calf serum); Pancreatin (0.25% (w/v) solution was formulated with PBS, 0.53 mM of EDTA was added in the formulation); PBS; 96-well culture plate.
(§2) 1. A plate (10 cm) of cells in logarithmic growth phase that were normally cultured was collected;
(§3) 2. The culture solution was sucked out. The plate was washed with 5 mL of PBS once or twice;
(§4) 3. PBS was sucked out. 1.5 mL of 0.25% pancreatin was added to the plate to infiltrate the cells for 1 min;
(§5) 4. The culture plate was placed in an incubator. Digestion was carried out for about 5 min at 37° C.;
5. 3 mL of complete culture solution was added to the culture plate to stop the digestion. The cells were carefully scoured with micropipette (1 ml) to give a uniform cell suspension. The suspension was implanted into a 96-well cell culture disc by 3000 cells/100 μL per well. The culture plate was incubated overnight under 5% CO2 at 37° C. In day 2, 100 μL of culture solution comprising a compound was added in each well. The plate was further incubated for 72 h under 5% CO2 at 37° C.;
(§6) 6. The culture solution was sucked out;
(§7) 7. 100 μL of serum-free culture solution containing 0.5 mg/mL MTT was added in each well. The plate was incubated for 3 h;
(§8) 8. The culture solution was carefully sucked out;
(§9) 9. 100 μL of DMSO was added in each well and vibrated to dissolve;
(§10) 10. OD values were determined at 490 nM.
(§11) IV. Results and Treatments
(§12) 1. Calculation of Relative Inhibition Ratio The inhibition ratio of a compound on cell growth=(PC−n)/(PC−NC)×100%
(§13) PC: OD values of cells after normal growth in control wells without a compound;
(§14) n: OD values of cells after growth in test wells with a compound;
(§15) NC: Background OD values of blank wells without a compound and cells.

The test system of the next data set is SK-OV-3 cells. As to the kind of experiment: SK-OV-3 cell growth inhibition test (MTT assay). The note with it: growth inhibition at 667 nM, 69 h. It counts as cell-based, human. The method, boiled down: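 Human ovarian SK-OV-3 cells, 4000 per well in McCoy's 5A with 10% FBS, rested overnight, then grown 69 h with compound at 37 °C, 5% CO2. MTT (0.5 mg/mL, 3 h), DMSO solubilisation, OD at 490 nm; inhibition ratio computed against untreated and blank wells.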
On the technique in general: Tetrazolium dyes change colour on reduction, which living cells bring about.

In another data set the test system is MDA-MB-453 cells. The data set is described as follows: MDA-MB-453 cell growth inhibition test (SRB assay). It counts as cell-based, human. To be noted: growth inhibition at 2000 nM, 69.5 h. The method, boiled down: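 MDA-MB-453 cells (7000/well) in L15 with 10% FBS were seeded overnight, then exposed to compound for 69.5 h at 37 °C and 5% CO2. After TCA fixation and SRB staining, dye was solubilised in Tris and OD read at 570 nm. Inhibition = (PC−n)/(PC−NC)×100%.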
On the technique in general: In SRB staining, fixed cells bind dye roughly in proportion to their protein.

In the next data set the test system is NCI-H446 cells. The data set is described as follows: NCI-H446 cell growth inhibition test (MTT assay). It counts as cell-based, human. To be noted: growth inhibition at 222 nM, 70 h. The method, boiled down: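 Human small cell lung cancer cells in RPMI-1640 with 10% FBS were seeded at 4000 per well and treated with compound for 70 h at 37° C, 5% CO2. MTT at 0.5 mg/mL was added for 3 h, formazan was dissolved in DMSO and OD read at 490 nm. Inhibition ratio was calculated against untreated and blank wells.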

A further data set deals with BxPc-3 cells. As to the kind of experiment: BxPc-3 cell growth inhibition test (MTT assay). The note with it: growth inhibition at 2000 nM, 70 h. The data set is classed as cell-based, human. The method, boiled down: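 BxPC-3 human pancreatic cancer cells at 5000 per well in RPMI-1640 with 10% FBS were treated with compound from day 2 for 70 h at 37 °C, 5% CO2. Viability was measured by MTT (0.5 mg/mL, 3 h) with DMSO solubilisation and OD 490 nm. Inhibition ratio = (PC−n)/(PC−NC)×100%.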

A further data set has as its system 22Rv1 cells. The data set is described as follows: 22Rv1 cell growth inhibition test (SRB assay). The data set is classed as cell-based, human. The note with it: growth inhibition at 222 nM, 73 h. In outline:
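Human prostate cancer 22Rv1 cells seeded at 7000 cells/well, incubated overnight, then exposed to compound for 73 h at 37° C, 5% CO2. TCA-fixed cells stained with SRB, dye dissolved in 10 mM Tris, OD read at 570 nm. Inhibition = (PC−n)/(PC−NC)×100% against untreated and cell-free blank wells.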

Data set [1] can be described thus: Solubility of the compound in water. The data set is classed as physicochemical.
In a further data set the test system is 786-O cells. The data set is described as follows: 786-O cell growth inhibition test (MTT assay). It counts as cell-based, human. The note with it: 72 h. The protocol: 786-O Cell Growth Inhibition Test (MTT Assay)
as §1
Culture medium: 90% RPMI1640+10% FBS (fetal calf serum); Pancreatin (0.25% (w/v) solution was formulated with PBS, 0.53 mM of EDTA was added in the formulation); PBS; 96-well culture plate.
as §2, §3, §4
(§16) 4. The culture plate was placed in an incubator. Digestion was carried out for about 1 min at 37° C.;
5. 3 mL of complete culture solution was added to the culture plate to stop the digestion. The cells were carefully scoured with micropipette (1 mL) to give a uniform cell suspension. The suspension was implanted into a 96-well cell culture disc by 2000 cells/100 μL per well. The culture plate was incubated overnight under 5% CO2 at 37° C. In day 2, 100 μL of culture solution comprising a compound was added in each well. The plate was further incubated for 72 h under 5% CO2 at 37° C.;
as §6, §7, §8, §9, §10, §11, §12, §13, §14, §15

In the next data set the test system is Hep3B cells. As to the kind of experiment: Hep3B cell growth inhibition test (SRB assay). The data set is classed as cell-based. To be noted: 72 h. Here is the method: Hep3B Cell Growth Inhibition Test (SRB Assay)
as §1
Culture medium: 90% RPMI-1640+10% FBS; Pancreatin (0.25% (w/v) solution was formulated with PBS, 0.53 mM of EDTA was added in the formulation); PBS; 96-well culture plate.
as §2, §3
3. 1.5 mL of 0.25% pancreatin was added to the plate to infiltrate the cells;
4. The pancreatin was sucked out. The culture plate was placed in an incubator. Digestion was carried out for about 3 min at 37° C.;
5. 4 mL of complete culture solution was added to the culture plate to stop the digestion. The cells were carefully scoured with micropipette (1 mL) to give a uniform single cell suspension. The suspension was implanted into a 96-well cell culture plate by 5000 cells/100 μL per well. The culture plate was incubated overnight under 5% CO2 at 37° C. In day 2, 100 μL of culture solution comprising a compound was added in each well. The plate was further incubated for 72 h under 5% CO2 at 37° C.;
6. The culture solution was sucked out. 100 uL of TCA fixed cells which were diluted to 10% were added to each well. The plate was kept in a refrigerator for 1 h at 4° C.
7. TCA stationary liquid was sucked out. Each well was washed with 150 μL of ddH2O five times;
8. After the stationary liquid was cleansed, the plate was dried in the air at the room temperature;
9. 60 μL of SRB staining solution was added in each well. The well was stained for 15 min at the room temperature;
10. The SRB staining solution was sucked out. Each well was washed with 150 μL of 1% glacial acetic acid five times;
11. After the SRB staining solution was cleansed, the plate was dried in the air at the room temperature;
12. 100 μL of 10 mM Tris was added in each well. The plate was vibrated to dissolve out SRB;
13. OD values were determined at 570 nM.
as §11
1. Calculation of Relative Inhibition Ratio The inhibition ratio of the compound on cell growth=(PC−n)/(PC−NC)×100% […]

A further data set deals with DU-145 cells. The data set is described as follows: DU-145 cell growth inhibition test (MTT assay). The data set is classed as cell-based. The note with it: 72 h. The protocol: DU-145 Cell Growth Inhibition Test (MTT Assay)
as §1
Culture medium: 90% EMEM+10% FBS (fetal calf serum); Pancreatin (0.25% (w/v) solution was formulated with PBS, 0.53 mM of EDTA was added in the formulation); PBS; 96-well culture plate.
as §2, §3, §4, §16
5. 3 mL of complete culture solution was added to the culture plate to stop the digestion. The cells were carefully scoured with micropipette (1 mL) to give a uniform cell suspension. The suspension was implanted into a 96-well cell culture disc by 4000 cells/100 μL per well. The culture plate was incubated overnight under 5% CO2 at 37° C. In day 2, 100 μL of culture solution comprising a compound was added in each well. The plate was further incubated for 72 h under 5% CO2 at 37° C.;
as §6, §7, §8, §9, §10, §11, §12, §13, §14, §15

A further data set deals with A431 cells. The data set is described as follows: A431 cell growth inhibition test (MTT assay). It counts as cell-based, human. To be noted: 72 h. The protocol:
A431 Cell Growth Inhibition Test (MTT Assay)
as §1
Culture medium: 45% DMEM+45% F12+10% FBS (fetal calf serum); Pancreatin (0.25% (w/v) solution was formulated with PBS, 0.53 mM of EDTA was added in the formulation); PBS; 96-well culture plate.
as §2, §3, §4, §5
5. 3 mL of complete culture solution was added to the culture plate to stop the digestion. The cells were carefully scoured with micropipette (1 mL) to give a uniform cell suspension. The suspension was implanted into a 96-well cell culture disc by 2500 cells/100 μL per well. The culture plate was incubated overnight under 5% CO2 at 37° C. In day 2, 100 μL of culture solution comprising a compound was added in each well. The plate was further incubated for 72 h under 5% CO2 at 37° C.;
as §6, §7, §8, §9, §10, §11, §12, §13, §14, §15

Counter-ions that a name gives are not always drawn.

With `COc1cccc2c1C(=O)c1c(O)c3c(c(O)c1C2=O)CC(O)(C(=O)COC(=O)CCC(=O)NCCOCCN(C)C)CC3OC1CC(n2cccc2)C(O)C(C)O1` (stereo not drawn) [Example 6], the half-inhibitory concentration (IC50) in the data set with A375 cells was 67 nM.
For `CC(=O)O.COc1cccc2c1C(=O)c1c(O)c3c(c(O)c1C2=O)CC(O)(C(=O)COC(=O)CCC(=O)N1CCN(CCO)CC1)CC3O[C@H]1C[C@H](n2cccc2)[C@H](O)[C@H](C)O1` (stereo partly drawn) [Example 77, 10-((3′-(pyrrol-1-yl)-2′,3′,6′-trideoxy-alphal-l-lyxo-hexylpyranyl)oxy)-7,8,9,10-tetrahydro-6,8,11-trihydroxy-13-oxo-14-(4-((4-(2-hydroxy)ethyl)piperazin-1-yl)-4-oxo-butyrato)-1-methoxy-5,12-naphthalenedione acetate], the “Inhibition Ratio (%)” value in the data set on SK-OV-3 cells is listed as 60.4%; with MDA-MB-453 cells, 79.7%; with NCI-H446 cells, 59.1%; with BxPc-3 cells, 83.3%; with 22Rv1 cells, 57.9%. For the same compound, the “solubility of the compound in water” value in data set [1] was “more than 10.6 mg/ml”.
On to `COc1cccc2c1C(=O)c1c(O)c3c(c(O)c1C2=O)CC(O)(C(=O)COC(=O)CCC(=O)NCCOCCOCCOCCOCCOCCOCCOCCO)CC3OC1CC(n2cccc2)C(O)C(C)O1` (stereo not drawn) [Example 90], for which the values for the IC50 with 786-O cells, in the data set on Hep3B cells and with DU-145 cells were 90 nM, 29 nM and 30 nM, respectively.
For `COc1cccc2c1C(=O)c1c(O)c3c(c(O)c1C2=O)CC(O)(C(=O)COC(=O)CCC(=O)NCCOCCOCCOCCOCCOCCOCCOCCOCCOCCOCCOCCO)CC3OC1CC(n2cccc2)C(O)C(C)O1` (stereo not drawn) [Example 92], the IC50 in the data set with Hep3B cells turned out to be 28 nM; in the data set on DU-145 cells it was 61 nM.
For `COc1cccc2c1C(=O)c1c(O)c3c(c(O)c1C2=O)CC(O)(C(=O)COC(=O)CCCC(=O)NCCN1CCOCC1)CC3OC1CC(n2cccc2)C(O)C(C)O1` (stereo not drawn) [Example 97], the 50% inhibitory concentration (IC50) in the data set on A431 cells was found to be 45 nM; with A375 cells it was 28 nM.
`COc1cccc2c1C(=O)c1c(O)c3c(c(O)c1C2=O)CC(O)(C(=O)COC(=O)CCC(=O)NCCN1CCOCC1)CC3O[C@H]1C[C@H](n2cccc2)[C@H](O)[C@H](C)O1` (stereo partly drawn) [Example 99, 10-((3′-(pyrrol-1-yl)-2′,3′,6′-trideoxy-alphal-l-lyxo-hexylpyranyl)oxy)-7,8,9,10-tetrahydro-6,8,11-trihydroxy-13-oxo-14-(4-((2-(morpholin-1-yl)ethyl)amino)-4-oxo-butyrato)-1-methoxy-5,12-naphthalenedione hydrochloride] came in with a half-inhibitory concentration (IC50) in the data set with A375 cells (hydrochloride) of 35 nM.

As a reminder, the IC50 is the concentration needed to halve the response being measured. A lower IC50 goes with higher potency.
